Measurements as given in patent US20250257064A1, “TRIFLUOROMETHYL-SUBSTITUTED SULFONAMIDE AS BCL-2-SELECTIVE INHIBITOR” (Chia Tai Tianqing Pharmaceutical Group Co., Ltd., priority 2018, published 2025).

Tests used:
BCL-XL/BAK = target: T1, BCL-XL/BAK (Homo sapiens, UniProt Q07817); assay: Screening on inhibitory activity for BCL-XL/BAK binding (Cisbio HTRF kit)
T1 construct: purchased Cisbio
Protocol: 1.2 Screening on Inhibitory Activity for BCL-XL/BAK Binding
300 nM Tag1-BCL-XL protein stock solution and 10 μM Tag2-BAK protein stock solution were diluted to 2 nM and 80 nM respectively with dilution buffer in kit (model: BCL-XL/BAK (BH3) BINDING ASSAY KITS, from Cisbio). 5 μL of Tag1-BCL-XL protein diluent was added to each well, then different compounds dissolved with DMSO were added to the wells with a nanoliter pipettor, allowing the final compound concentrations to be 2000 nM to 0.488 nM (4-fold gradient for 7 concentrations in total). Blank control wells (without enzyme) and negative control wells (with enzyme, plus vehicle DMSO) were set, and 2 replicate wells were set. Finally, 5 μL of Tag2-BAK protein diluent was added to each well, and the mixture was mixed well by centrifugation and incubated at 25° C. for 15 min. 100× anti-Tag1-Eu^3+ and 100× anti-Tag2-XL665 were both diluted to 1× working concentration with the detection buffer in the kit. Anti-Tag1-Eu^3+ and anti-Tag2-XL665 were mixed well in a 1:1 ratio, and the mixture was added to wells at 5 µL/well, and incubated at 25° C. for 2 h or more. The plate was read using a PE Envision multi-functional microplate reader (excitation: […], emission: 665 nm) and IC50 (shown in table 1) was calculated by four-parameter fitting.

BCL-2/BAK = target: T2, BCL-2/BAK (Homo sapiens, UniProt P10415); assay: Screening on inhibitory activity for BCL-2/BAK binding (Cisbio HTRF kit)
T2 construct: purchased Cisbio
T2 sequence (P10415 whole entry, species assumed): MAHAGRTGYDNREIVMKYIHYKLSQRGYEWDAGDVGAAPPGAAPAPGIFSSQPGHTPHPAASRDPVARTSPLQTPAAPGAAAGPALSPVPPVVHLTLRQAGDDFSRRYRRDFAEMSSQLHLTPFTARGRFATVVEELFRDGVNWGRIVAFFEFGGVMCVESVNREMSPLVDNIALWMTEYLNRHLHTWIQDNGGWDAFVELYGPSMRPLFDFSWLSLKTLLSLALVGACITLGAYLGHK
Protocol: 1.1 Screening on Inhibitory Activity for BCL-2/BAK Binding
500 nM Tag1-BCL-2 protein stock solution and 20 μM Tag2-BAK protein stock solution were diluted to 5 nM and 120 nM respectively with dilution buffer in kit (model: BCL-2/BAK (BH3) BINDING ASSAY KITS, from Cisbio). 5 μL of Tag1-BCL-2 protein diluent was added to each well, then different compounds dissolved with DMSO were added to the wells with a nanoliter pipettor, allowing the final compound concentrations to be 200 nM to 0.0488 nM (4-fold gradient for 7 concentrations in total). Blank control wells (without enzyme) and negative control wells (with enzyme, plus vehicle DMSO) were set, and 2 replicate wells were set. Finally, 5 μL of Tag2-BAK protein diluent was added to each well, and the mixture was mixed well by centrifugation and incubated at 25° C. for 15 min. 100× anti-Tag1-Eu^3+ and 100× anti-Tag2-XL665 were both diluted to 1× working concentration with the detection buffer in the kit. Anti-Tag1-Eu^3+ and anti-Tag2-XL665 were mixed well in a 1:1 ratio, and the mixture was added to wells at 5 μL/well, and incubated at 25° C. for 2 h or more. The plate was read using a PE Envision multi-functional microplate reader (excitation: […], emission: 665 nm) and IC50 (shown in table 1) was calculated by four-parameter fitting.

RS4;11 cells = assay: Inhibitory effect on proliferation of RS4;11 cells (CCK-8); assay type: cell-based, human; details: Homo sapiens, RS4-11, 72 h
Protocol: Experimental Example 2: Inhibitory Effect of Compounds on Proliferation of RS4;11 Cells
RS4;11 cells (from Nanjing Cobioer) in logarithmic growth phase and good cell condition were added to a centrifuge tube and centrifuged at 1500 rpm for 3 min in a low speed centrifuge. The supernatant was discarded, and 5 mL of complete medium (RPMI basic medium+10 wt % fetal bovine serum (FBS)) was added using a pipette for cell resuspension. The cells were counted using a cell counter, diluted with complete medium to a cell density of 2×10^5 cells/mL, and added with an equivalent amount of RPMI basic medium to adjust the serum concentration to 5% and the cell density to 1×10^5 cells/mL for plate seeding. The cells were seeded on a 96-well plate at 100 μL/well using a pipettor, and incubated in an incubator at 37° C., 5% CO2 with saturated humidity. After 24 h of incubation, compounds were loaded using a nanoliter pipettor, 2 duplicate wells were set for each concentration, and cells without compound were used as negative controls. […] Inhibition rate (%)=(mean value of negative control group—mean value of experimental group)/(mean value of negative control group—mean value of blank group)×100%. A dose-response curve was fitted by four-parameter analysis, with the logarithm of compound concentration serving as abscissa and inhibition rate serving as ordinate, so that IC50 was calculated (FIG. 2).

T1 sequence (Q07817 whole entry, species assumed): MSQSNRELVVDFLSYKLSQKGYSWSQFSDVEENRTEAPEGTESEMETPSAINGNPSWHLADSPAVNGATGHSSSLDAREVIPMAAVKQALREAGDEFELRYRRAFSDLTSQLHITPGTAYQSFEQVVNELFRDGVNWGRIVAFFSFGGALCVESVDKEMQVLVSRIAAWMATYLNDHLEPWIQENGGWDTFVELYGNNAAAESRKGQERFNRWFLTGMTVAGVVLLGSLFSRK

Structure (SMILES) | IC50 (BCL-XL/BAK) [nM] | IC50 (BCL-2/BAK) [nM] | IC50 (RS4;11 cells) [nM]
CC(C)C(=O)N1CCO[C@@H](CNc2ccc(S(=O)(=O)NC(=O)c3ccc(N4CCN(CC5=C(c6ccc(C(F)(F)F)cc6Cl)CC(C)(C)CC5)CC4)cc3Oc3cnc4[nH]ccc4c3)cc2[N+](=O)[O-])C1 [Compound 62-1, (S)-4-(4-{[2-(2-chloro-4-trifluoromethylphenyl)-4,4-dimethylcyclohex-1-enyl]methyl}-piperazin-1-yl)-N-({3-nitro-4-[((4-isobutyrylmorpholin-2-yl)methyl)amino]phenyl}sulfonyl)-2-(1H-pyrrolo[2,3-b]pyridin-5-yloxy)-benzamide] | 145 | 2.35 | 4.1
CC(C)C(=O)N1CCO[C@H](CNc2ccc(S(=O)(=O)NC(=O)c3ccc(N4CCN(CC5=C(c6ccc(C(F)(F)F)cc6Cl)CC(C)(C)CC5)CC4)cc3Oc3cnc4[nH]ccc4c3)cc2[N+](=O)[O-])C1 [Compound 66-1, (R)-4-(4-{[2-(2-chloro-4-trifluoromethylphenyl)-4,4-dimethylcyclohex-1-enyl]methyl}-piperazin-1-yl)-N-({3-nitro-4-[((4-isobutyrylmorpholin-2-yl)methyl)amino]phenyl}sulfonyl)-2-(1H-pyrrolo[2,3-b]pyridin-5-yloxy)-benzamide] | 273 | 2.6 | 3.3
COCC(=O)N1CCC(CNc2ccc(S(=O)(=O)NC(=O)c3ccc(N4CCN(CC5=C(c6ccc(C(F)(F)F)cc6Cl)CC(C)(C)CC5)CC4)cc3Oc3cnc4[nH]ccc4c3)cc2[N+](=O)[O-])CC1 [Compound 73-1, 4-(4-{[2-(2-chloro-4-trifluoromethylphenyl)-4,4-dimethylcyclohex-1-enyl]methyl}-piperazin-1-yl)-N-({3-nitro-4-[((1-(2-methoxyacetyl)piperidin-4-yl)methyl)amino]phenyl}sulfonyl)-2-(1H-pyrrolo[2,3-b]pyridin-5-yloxy)-benzamide] | 204 | 1.6 | 1.5
CCOC(=O)N1CCOC(CNc2ccc(S(=O)(=O)NC(=O)c3ccc(N4CCN(CC5=C(c6ccc(C(F)(F)F)cc6Cl)CC(C)(C)CC5)CC4)cc3Oc3cnc4[nH]ccc4c3)cc2[N+](=O)[O-])C1 (stereo not drawn) [Compound 74-1, 4-(4-{[2-(2-chloro-4-trifluoromethylphenyl)-4,4-dimethylcyclohex-1-enyl]methyl}-piperazin-1-yl)-N-({3-nitro-4-[((4-(ethoxyformyl)morpholin-2-yl)methyl)amino]phenyl}sulfonyl)-2-(1H-pyrrolo[2,3-b]pyridin-5-yloxy)-benzamide] | 252 | 1.66 | 6.9

The remaining lines, values ahead:

IC50 (BCL-XL/BAK) [nM] | IC50 (BCL-2/BAK) [nM] | IC50 (RS4;11 cells) [nM] | Structure (SMILES)
217 | 2.3 | 1.4 | CC1(C)CCC(CN2CCN(c3ccc(C(=O)NS(=O)(=O)c4ccc(NC[C@H]5CN(S(C)(=O)=O)CCO5)c([N+](=O)[O-])c4)c(Oc4cnc5[nH]ccc5c4)c3)CC2)=C(c2ccc(C(F)(F)F)cc2Cl)C1 [Compound 63-1, (S)-4-(4-{[2-(2-chloro-4-trifluoromethylphenyl)-4,4-dimethylcyclohex-1-enyl]methyl}-piperazin-1-yl)-N-({3-nitro-4-[(((4-(methylsulfonyl)morpholin)-2-yl)methyl)amino]phenyl}sulfonyl)-2-(1H-pyrrolo[2,3-b]pyridin-5-yloxy)-benzamide]
199 | 0.6 | 0.8 | CC1(C)CCC(CN2CCN(c3ccc(C(=O)NS(=O)(=O)c4ccc(NC[C@@H]5CN(S(C)(=O)=O)CCO5)c([N+](=O)[O-])c4)c(Oc4cnc5[nH]ccc5c4)c3)CC2)=C(c2ccc(C(F)(F)F)cc2Cl)C1 [Compound 67-1, (R)-4-(4-{[2-(2-chloro-4-trifluoromethylphenyl)-4,4-dimethylcyclohex-1-enyl]methyl}-piperazin-1-yl)-N-({3-nitro-4-[(((4-(methylsulfonyl)morpholin)-2-yl)methyl)amino]phenyl}sulfonyl)-2-(1H-pyrrolo[2,3-b]pyridin-5-yloxy)-benzamide]
109 | 0.76 | 6.1 | CC1(C)CCC(CN2CCN(c3ccc(C(=O)NS(=O)(=O)c4ccc(NCCCC5CN(S(C)(=O)=O)CCO5)c([N+](=O)[O-])c4)c(Oc4cnc5[nH]ccc5c4)c3)CC2)=C(c2ccc(C(F)(F)F)cc2Cl)C1 (stereo not drawn) [Compound 71-1, 4-(4-{[2-(2-chloro-4-trifluoromethylphenyl)-4,4-dimethylcyclohex-1-enyl]methyl}-piperazin-1-yl)-N-({3-nitro-4-[(3-(4-(2-methylsulfonyl)morpholin-2-yl)propyl)amino]phenyl}sulfonyl)-2-(1H-pyrrolo[2,3-b]pyridin-5-yloxy)-benzamide]
322 | 3.5 | 3.9 | COC(=O)N1CCOC(CNc2ccc(S(=O)(=O)NC(=O)c3ccc(N4CCN(CC5=C(c6ccc(C(F)(F)F)cc6Cl)CC(C)(C)CC5)CC4)cc3Oc3cnc4[nH]ccc4c3)cc2[N+](=O)[O-])C1 (stereo not drawn) [Compound 75-1, 4-(4-{[2-(2-chloro-4-trifluoromethylphenyl)-4,4-dimethylcyclohex-1-enyl]methyl}-piperazin-1-yl)-N-({3-nitro-4-[((4-(methoxyformyl)morpholin-2-yl)methyl)amino]phenyl}sulfonyl)-2-(1H-pyrrolo[2,3-b]pyridin-5-yloxy)-benzamide]
